# In patent US8404683B2, “Inhibitors of the interaction between MDM2 and P53” (Janssen Pharmaceutical N.V., priority 2004, dated 2013):
# Counter-ions that a name gives are not always drawn.
# Tested on: not given
# Experiment: not given
# Conditions: not given
row,melting point,Compound
1,170 °C,c1ccc2c(Nc3ccc(NCCc4c[nH]c5ccccc45)cc3)ccnc2c1 (as salt: HCl) [Compound 1]
2,160 °C,c1cncc(Nc2ccc(NCCc3c[nH]c4ccccc34)cc2)c1 (as salt: HCl) [Compound 6]
3,150 °C,CCOc1cc(Nc2ccncc2)ccc1NCCc1c[nH]c2ccccc12 (as salt: hydrochloric acid salt) [Compound 2]
4,> 250 °C,Cn1cc(CCN(c2ccncc2)c2ccc(Nc3ccncc3)cc2)c2ccccc21 (as salt: hydrochloric acid salt) [Compound 10]
5,130 °C,c1cncc(CNc2ccc(NCCc3c[nH]c4ccccc34)cc2)c1 (as salt: hydrochloric acid salt) [Compound 121]
6,132 °C,c1ccc2c(CCNc3ccc(NCc4ccncc4)cc3)c[nH]c2c1 (as salt: salt) [Compound 9]

# Tested on: U87MG cells
# Experiment: Proliferation assay (MTT-based) on U87MG tumour cells
# Conditions: Homo sapiens, U-87 MG, 96 h, 4 days of incubation, negative log value of the IC50-value, read-out: cell proliferation pIC50 (converted)
# Protocol: U87MG cells are human glioblastoma cells with wild type p53. In this cell line MDM2 tightly controls p53 expression.
# Cellular activity of the compounds of formula (I) was determined on U87MG tumour cells using a colorimetric assay for cell toxicity or survival (see example C.2).
# All compounds tested were dissolved in DMSO and further dilutions were made in culture medium. Final DMSO concentrations never exceeded 0.1% (v/v) in cell proliferation assays. Controls contained U87MG cells and DMSO without compound and blanks contained DMSO but no cells.
# U87MG cells were seeded in 96-well cell culture plates at 3000 cells/well/100 μl. 24 hours later, medium was changed and compound and/or solvent were added to a final volume of 200 μl. Following 4 days of incubation, medium was replaced by 200 μl fresh medium and cell growth was assessed using a MTT-based assay. Therefore, 25 μl of the MTT solution (0.5% MTT research grade from Serva in phosphate-buffered saline) was added to each well and the cells were further incubated for 2 hours at 37° C. The medium was then carefully aspirated and the blue MTT-formazan product was dissolved by adding to each well 25 μl 0.1 M glycin and 100 μl DMSO. The plates were shaken for another 10 min on a micro plate shaker before reading absorbance at 540 nm by a Biorad micro plate reader.
# Within an experiment, the results for each experimental condition are the mean of 3 replicate wells. For initial screening purposes, compounds were tested at a single fixed concentration of 10^−5 M. For active compounds, the experiments were repeated to establish full concentration-response curves. For each experiment, controls (containing no drug) and a blank incubation (containing no cells or drugs) were run in parallel. The blank value was subtracted from all control and sample values. For each sample, the mean value for cell growth (in absorbance units) was expressed as a percentage of the mean value for cell growth of the control. When appropriate, IC50-values (concentration of the drug, needed to reduce cell growth to 50% of the control) were computed using probit analysis for graded data (Finney, D. J., Probit Analyses, 2nd Ed. Chapter 10, Graded Responses, Cambridge University Press, Cambridge 1962). Herein the effects of test compounds are expressed as pIC50 (the negative log value of the IC50-value) (see table F-2).
row,Compound,IC50
1,c1ccc(CCNCc2cc(Nc3ccc(NCCc4c[nH]c5ccccc45)cc3)ccn2)cc1 [Compound 163],3.16 µM
2,c1ccc(CCCNCc2cc(Nc3ccc(NCCc4c[nH]c5ccccc45)cc3)ccn2)cc1 [Compound 164],2.51 µM
3,OCCCCNCc1cc(Nc2ccc(NCCc3c[nH]c4ccccc34)cc2)ccn1 [Compound 165],5.01 µM
4,c1ccc2c(CCNc3ccc(Nc4ccnc(CNCCCN5CCOCC5)c4)cc3)c[nH]c2c1 [Compound 166],> 10 µM
5,c1ccc(COCc2cc(Nc3ccc(NCCc4c[nH]c5ccccc45)cc3)ccn2)cc1 [Compound 167],3.98 µM
6,c1ccc(CNCc2cc(Nc3ccc(NCCc4c[nH]c5ccccc45)cc3)ccn2)cc1 [Compound 168],2 µM
7,COCCOCc1cc(Nc2ccc(NCCc3c[nH]c4ccccc34)cc2)ccn1 [Compound 169],0.398 µM
8,c1ccc(CCCCNCc2cc(Nc3ccc(NCCc4c[nH]c5ccccc45)cc3)ccn2)cc1 [Compound 170],3.16 µM
9,c1ccc(CCCOCc2cc(Nc3ccc(NCCc4c[nH]c5ccccc45)cc3)ccn2)cc1 [Compound 171],> 10 µM
10,COC(=O)CCOCc1cc(Nc2ccc(NCCc3c[nH]c4ccccc34)cc2)ccn1 [Compound 172],> 10 µM
11,O=c1cc(Nc2ccc(NCCc3c[nH]c4ccccc34)cc2)cc[nH]1 [Compound 173],> 10 µM
12,CCOc1cc(Nc2ccncc2)ccc1NCCc1c[nH]c2cc(OC)ccc12 [Compound 177],0.0501 µM
13,COC(=O)c1cc(Nc2ccc(NCCc3c[nH]c4cc(OC)ccc34)cc2)ccn1 [Compound 178],1.58 µM
14,COc1cc(Nc2ccnc(CO)c2)ccc1NCCc1c[nH]c2ccccc12 [Compound 179],0.251 µM
15,COc1ccc2c(CCNc3ccc(Nc4ccnc(CO)c4)cc3)c[nH]c2c1 [Compound 180],0.631 µM
16,COc1ccc2c(CCNc3ccc(Nc4ccnc(CO)c4)cc3OC)c[nH]c2c1 [Compound 181],0.251 µM
17,Clc1ccc2[nH]cc(CCNc3ccc(Nc4ccncc4)cc3)c2c1 [Compound 182],1.58 µM
18,Cc1ccc2c(CCNc3ccc(Nc4ccncc4)cc3)c[nH]c2c1 [Compound 183],0.501 µM
19,Fc1ccc2c(CCNc3ccc(Nc4ccncc4)cc3)c[nH]c2c1 [Compound 184],1 µM
20,Cc1ccc2[nH]cc(CCNc3ccc(Nc4ccncc4)cc3)c2c1 [Compound 185],2 µM
21,Clc1cccc2[nH]cc(CCNc3ccc(Nc4ccncc4)cc3)c12 [Compound 186],1 µM
22,Cc1cccc2c(CCNc3ccc(Nc4ccncc4)cc3)c[nH]c12 [Compound 187],0.398 µM
23,COc1cccc2c(CCNc3ccc(Nc4ccncc4)cc3)c[nH]c12 [Compound 188],0.794 µM

# Continued, values first:
row,IC50,Compound
1,3.16 µM,Cc1ccc2[nH]cc(CCNc3ccc(Nc4ccnc(CO)c4)cc3)c2c1 [Compound 189]
2,3.98 µM,c1cnc2[nH]cc(CCNc3ccc(Nc4ccncc4)cc3)c2c1 [Compound 190]
3,3.16 µM,COc1cccc2[nH]cc(CCNc3ccc(Nc4ccncc4)cc3)c12 [Compound 191]
4,> 10 µM,Brc1ccc2c(CCNc3ccc(Nc4ccncc4)cc3)c[nH]c2c1 [Compound 192]
5,1 µM,OCc1cc(Nc2ccc(NCCc3c[nH]c4cc(F)ccc34)cc2)ccn1 [Compound 193]
6,6.31 µM,N#CC=Cc1ccc2c(CCNc3ccc(Nc4ccncc4)cc3)c[nH]c2c1 [Compound 194]
7,0.0794 µM,O[C@@H]1CCc2c(Nc3ccc(NCCc4c[nH]c5ccccc45)cc3)ccnc21 [Compound 195]
8,0.2 µM,COc1ccc2c(CCNc3ccc(Nc4ccnc5c4CCC5O)cc3)c[nH]c2c1 (centres unmarked) [Compound 196]
9,0.251 µM,CCOc1cc(Nc2ccnc3c2CCCC3O)ccc1NCCc1c[nH]c2cc(OC)ccc12 (centres unmarked) [Compound 197]
10,1.26 µM,c1ccc2c(CCNc3ccc(Nc4ccnc5[nH]ccc45)cc3)c[nH]c2c1 [Compound 198]
11,2 µM,Clc1cccc(CC(CNc2ccc(Nc3ccncc3)cc2)c2c[nH]c3ccccc23)c1 (centres unmarked) [Compound 199]
12,3.16 µM,CC(C)(O)c1cc(Nc2ccc(NCCc3c[nH]c4ccccc34)cc2)ccn1 [Compound 201]
13,3.16 µM,CC(=O)OC(C)(C)c1cc(Nc2ccc(NCCc3c[nH]c4ccccc34)cc2)ccn1 [Compound 202]
14,3.16 µM,CCC(O)c1cc(Nc2ccc(NCCc3c[nH]c4ccccc34)cc2)ccn1 (centres unmarked) [Compound 203]
15,7.94 µM,O=C(c1cc(Nc2ccc(NCCc3c[nH]c4ccccc34)cc2)ccn1)C1CC1 [Compound 204]
16,0.794 µM,CCOc1cc(Nc2ccnc(C(C)O)c2)ccc1NCCc1c[nH]c2cc(OC)ccc12 (centres unmarked) [Compound 205]
17,3.16 µM,CC(=O)NCc1cc(Nc2ccc(NCCc3c[nH]c4ccccc34)cc2)ccn1 [Compound 206]
18,0.794 µM,O=C(C(Cc1c[nH]c2ccccc12)Nc1ccc(Nc2ccncc2)cc1)N(CCCCO)Cc1ccccc1 (centres unmarked) [Compound 207]
19,> 10 µM,O=C(C(Cc1c[nH]c2ccccc12)Nc1ccc(Nc2ccncc2)cc1)N1CCCC1CO (centres unmarked) [Compound 208]
20,> 10 µM,O=C(C(Cc1c[nH]c2ccccc12)Nc1ccc(Nc2ccncc2)cc1)N1CCC(CO)C1 (centres unmarked) [Compound 209]

row,IC50,Compound
1,> 10 µM,O=C(C(Cc1c[nH]c2ccccc12)Nc1ccc(Nc2ccncc2)cc1)N1CCC(CCO)C1 (centres unmarked) [Compound 210]
2,0.0631 µM,CN(C)CCN(Cc1ccccc1)C(=O)C(Cc1c[nH]c2ccccc12)Nc1ccc(Nc2ccncc2)cc1 (centres unmarked) [Compound 211]
3,1.58 µM,CCN(CCCCO)C(=O)C(Cc1c[nH]c2ccccc12)Nc1ccc(Nc2ccncc2)cc1 (centres unmarked) [Compound 212]
4,> 10 µM,CN(CCO)C(=O)C(Cc1c[nH]c2ccccc12)Nc1ccc(Nc2ccncc2)cc1 (centres unmarked) [Compound 213]
5,> 10 µM,O=C(C(Cc1c[nH]c2ccccc12)Nc1ccc(Nc2ccncc2)cc1)N(CCO)Cc1ccccc1 (centres unmarked) [Compound 214]
6,3.16 µM,COCCN(C)C(=O)C(Cc1c[nH]c2ccccc12)Nc1ccc(Nc2ccncc2)cc1 (centres unmarked) [Compound 215]
7,2.51 µM,O=C(C(Cc1c[nH]c2ccccc12)Nc1ccc(Nc2ccncc2)cc1)N1CCCCC1CCCO (centres unmarked) [Compound 216]
8,3.98 µM,O=C(C(Cc1c[nH]c2ccccc12)Nc1ccc(Nc2ccncc2)cc1)N1CCC(CCCO)CC1 (centres unmarked) [Compound 217]
9,> 10 µM,O=C(C(Cc1c[nH]c2ccccc12)Nc1ccc(Nc2ccncc2)cc1)N1CCCC(CO)C1 (centres unmarked) [Compound 218]
10,3.98 µM,CC1(CO)CCCN(C(=O)C(Cc2c[nH]c3ccccc23)Nc2ccc(Nc3ccncc3)cc2)C1 (centres unmarked) [Compound 219]
11,6.31 µM,CC(C)(CO)C1CCN(C(=O)C(Cc2c[nH]c3ccccc23)Nc2ccc(Nc3ccncc3)cc2)CC1 (centres unmarked) [Compound 220]
12,3.98 µM,CC(CO)(CO)C1CCN(C(=O)C(Cc2c[nH]c3ccccc23)Nc2ccc(Nc3ccncc3)cc2)CC1 (centres unmarked) [Compound 221]
13,3.98 µM,COCC1(O)CCN(C(=O)C(Cc2c[nH]c3ccccc23)Nc2ccc(Nc3ccncc3)cc2)CC1 (centres unmarked) [Compound 222]
14,0.794 µM,COCC(O)C1CCN(C(=O)C(Cc2c[nH]c3ccccc23)Nc2ccc(Nc3ccncc3)cc2)CC1 (centres unmarked) [Compound 223]
15,3.98 µM,O=C(C(Cc1c[nH]c2ccccc12)Nc1ccc(Nc2ccncc2)cc1)N1CCC(CO)CC1 (centres unmarked) [Compound 224]
16,0.158 µM,CC(O)C1CCN(C(=O)C(Cc2c[nH]c3ccccc23)Nc2ccc(Nc3ccncc3)cc2)CC1 (centres unmarked) [Compound 225]
17,3.16 µM,CC(C)(C)OC(=O)N(CCc1cn(C(=O)OC(C)(C)C)c2ccccc12)c1ccc(Nc2ccncc2)cc1 [Compound 226]
18,7.94 µM,CC(C)(C)OC(=O)N(CCc1cn(C(=O)OC(C)(C)C)c2ccccc12)c1ccc(N(c2ccncc2)c2ccncc2)cc1 [Compound 227]
19,7.94 µM,c1ccc2c(CCNc3ccc(N(c4ccncc4)c4ccncc4)cc3)c[nH]c2c1 [Compound 228]
